Reference: patent US20250215039A1, “NUCLEOSIDES FOR TREATING CANCER” (PRIMEFOUR THERAPEUTICS, INC., priority 2022, published 2025)
pIC50: −log10 of the molar value. Read-outs that look alike come from different tables or passages of the source.

Tested on: cancer cell lines
Test: Cancer cell proliferation activity (CellTiterGlo, 72 h)
Type: cell-based
Settings: 72 h, 72 h, read-out: IC50
Description: Dose response relationships on cell proliferation was assessed for representative Compounds of the Disclosure on cancer cell lines. Briefly, compound treatment of cells started one day after seeding with a final DMSO concentration of 0.1%, and was performed by nanodrop-dispensing using a Tecan Dispenser. 0.1% DMSO (solvent) and Staurosporine (10 μM) served as high control (100% viability) and low control (0% viability), respectively.
Cells were cultured in the appropriate media. For the assays, cells were seeded in white cell culture-treated flat and clear bottom multiwell plates and incubated at 37° C. overnight before compound was added. After incubation for 72 h at 37° C. at 5% or 10% CO2 dependent on the medium, cell plates were equilibrated to room temperature for one hour, CellTiterGlo reagent (Promega) was added and luminescence was measured approximately an hour later using a luminometer.
Raw data were converted into percent cell viability relative to the high and low control, which were set to 100% and 0%, respectively.
The IC50 values are summarized in Tables 9A-1, Table 10A, and Table 10B.

C=C[C@]1(CO)O[C@@H](Nc2[nH]c(=O)ncc2Br)C[C@@H]1O [Cpd. No. 3, 5-bromo-6-(((2R,4S,5R)-4-hydroxy-5-(hydroxymethyl)-5-vinyltetrahydrofuran-2-yl)amino)pyrimidin-2(1H)-one] was tested, and the pIC50 (5637 cell line (bladder)) was 5.30, the pIC50 (CLS439 cell line (bladder)) was under 4.30 and the pIC50 (HS729 cell line (muscle)) was 5.31. The pIC50 (JAR cell line (placenta)) was under 4.30, the pIC50 (U20S cell line, bone) was under 4.30 and the pIC50 (Homo sapiens, 22Rv1, 72 h, 22RV1 cell line (prostate)) was under 4.30. It also gave a pIC50 (Homo sapiens, 786-0, 72 h, 786O cell line (kidney)) of under 4.30, a pIC50 (Homo sapiens, A204, 72 h, A204 cell line (muscle)) of 5.96 and a pIC50 (Homo sapiens, A549, 72 h, A549 cell line, lung) of 5.48. For the same compound, the pIC50 (Homo sapiens, A673, 72 h, A673 cell line (bone)) was under 4.30, the pIC50 (Homo sapiens, A2780, 72 h, A2780 cell line (ovary)) was under 4.30 and the pIC50 (Homo sapiens, A-375, 72 h, A375 cell line (skin)) was 5.34. It also gave a pIC50 (Homo sapiens, A-431, 72 h, A431 cell line (skin)) of under 4.30, a pIC50 (Homo sapiens, ACHN, ACHN cell line (kidney)) of under 4.30 and a pIC50 (Homo sapiens, ASPC1, 72 h, ASPC1 cell line (pancreas)) of under 4.30. The pIC50 (Homo sapiens, BT-20, 72 h, BT20 cell line (breast)) was under 4.30, the pIC50 (Homo sapiens, BXPC-3, 72 h, BXPC3 cell line (pancreas)) was under 4.30 and the pIC50 (Homo sapiens, C-33-A, C33A cell line, endometrial) was 5.57. The pIC50 (Homo sapiens, CAKI-1, 72 h, CAKI1 cell line (kidney)) was 5.49, the pIC50 (Homo sapiens, COLO 205, 72 h, COLO205 cell line (colon)) was 5.64 and the pIC50 (Homo sapiens, COLO-678, 72 h, COLO678 cell line (colon)) was under 4.30. For the same compound, the pIC50 (Homo sapiens, Ca-Ski, CASKI cell line, endometrial) was under 4.30, the pIC50 (Homo sapiens, Caco-2, 72 h, CACO2 cell line (colon)) was under 4.30 and the pIC50 (Homo sapiens, Calu-6, 72 h, CALU6 cell line (lung)) was 5.22. It also gave a pIC50 (Homo sapiens, DLD-1, 72 h, DLD1 cell line (colon)) of under 4.30, a pIC50 (Homo sapiens, DU-145, 72 h, DU145 cell line (prostate)) of under 4.30 and a pIC50 (Homo sapiens, EFO-21, 72 h, EFO21 cell line (ovary)) of under 4.30. For the same compound, the pIC50 (Homo sapiens, EJ-28, 72 h, EJ28 cell line (bladder)) was under 4.30, the pIC50 (Homo sapiens, Granta-519, 72 h, GRANTA-519 cell line (hematological)) was 5.97 and the pIC50 (Homo sapiens, HCT-15, 72 h, HCT15 cell line (colon)) was under 4.30. For the same compound, the pIC50 (Homo sapiens, HCT-116, 72 h, HCT116 cell line (colon)) was 5.44, the pIC50 (Homo sapiens, HEK293, 72 h, HEK293 cell line (kidney)) was 5.46 and the pIC50 (Homo sapiens, HL-60, 72 h, HL-60 cell line (hematological)) was 5.47. It also gave a pIC50 (Homo sapiens, HT-29, 72 h, HT29 cell line (colon)) of under 4.30, a pIC50 (Homo sapiens, HT-1080, 72 h, HT1080 cell line (connective tissue)) of 5.46 and a pIC50 (Homo sapiens, HeLa, HELA cell line, endometrial) of 5.27. The pIC50 (Homo sapiens, HepG2, 72 h, HEPG2 cell line (liver)) was under 4.30, the pIC50 (Homo sapiens, Hs-578T, HS578T cell line, breast) was under 4.30 and the pIC50 (Homo sapiens, IGROV-1, 72 h, IGROV1 cell line (ovary)) was under 4.30. The pIC50 (Homo sapiens, IMR-90, 72 h, IMR90 cell line, lung) was 5.27, the pIC50 (Homo sapiens, J82, 72 h, J82 cell line (bladder)) was under 4.30 and the pIC50 (Homo sapiens, JEG-3, 72 h, JEG3 cell line (placenta)) was under 4.30. The pIC50 (Homo sapiens, JIMT-1, 72 h, JIMT1 cell line (breast)) was 4.93, the pIC50 (Homo sapiens, K562, 72 h, K-562 cell line (hematological)) was 5.30 and the pIC50 (Homo sapiens, Kasumi 1, 72 h, KASUMI-1 cell line (hematological)) was 6.30. For the same compound, the pIC50 (Homo sapiens, L-363, 72 h, L-363 cell line (hematological)) was under 4.30, the pIC50 (Homo sapiens, LoVo, LOVO cell line (colon)) was under 4.30 and the pIC50 (Homo sapiens, MCF7, 72 h, MCF7 cell line (breast)) was 5.59. For the same compound, the pIC50 (Homo sapiens, MDA-MB-231, 72 h, MDAMB231 cell line (breast)) was 5.53, the pIC50 (Homo sapiens, MDA-MB-435, 72 h, MDAMB435 cell line (skin)) was under 4.30 and the pIC50 (Homo sapiens, MDA-MB-436, 72 h, MDAMB436 cell line (breast)) was 5.44. The pIC50 (Homo sapiens, MDA-MB-468, 72 h, MDAMB468 cell line (breast)) was under 4.30, the pIC50 (Homo sapiens, MG-63, 72 h, MG63 cell line (bone)) was 5.41 and the pIC50 (Homo sapiens, MHH-ES-1, 72 h, MHHES1 cell line (bone)) was 5.31. It also gave a pIC50 (Homo sapiens, MIA PaCa-2, 72 h, MIAPACA2 cell line (pancreas)) of under 4.30, a pIC50 (Homo sapiens, MINO, MINO cell line (hematological)) of 5.82 and a pIC50 (Homo sapiens, MV4-11, 72 h, MV4-11 cell line (hematological)) of 5.67. The pIC50 (Homo sapiens, NCI-H23, 72 h, NCI-H23 cell line (lung)) was 5.74, the pIC50 (Homo sapiens, NCI-H82, 72 h, NCIH82 cell line (lung)) was under 4.30 and the pIC50 (Homo sapiens, NCI-H292, 72 h, NCIH292 cell line (lung)) was 5.27. The pIC50 (Homo sapiens, NCI-H460, 72 h, NCIH460 cell line (lung)) was under 4.30, the pIC50 (Homo sapiens, OVCAR-3, 72 h, OVCAR3 cell line (ovary)) was 5.51 and the pIC50 (Homo sapiens, OVCAR-4, 72 h, OVCAR4 cell line (ovary)) was 5.50. The pIC50 (Homo sapiens, PANC-1, 72 h, PANC1 cell line (pancreas)) was under 4.30, the pIC50 (Homo sapiens, PC-3, 72 h, PC3 cell line (prostate)) was 5.32 and the pIC50 (Homo sapiens, PLC-PRF-5, 72 h, PLCPRF5 cell line (liver)) was under 4.30. It also gave a pIC50 (Homo sapiens, Panc1005, 72 h, PANC1005 cell line (pancreas)) of under 4.30, a pIC50 (Homo sapiens, RD, RD cell line (muscle)) of 5.57 and a pIC50 (Homo sapiens, Ramos, RAMOS cell line (hematological)) of 5.85. For the same compound, the pIC50 (Homo sapiens, SAOS-2, 72 h, SAOS2 cell line (bone)) was 5.77, the pIC50 (Homo sapiens, SF-268, 72 h, SF268 cell line (brain)) was under 4.30 and the pIC50 (Homo sapiens, SF-295, 72 h, SF295 cell line (brain)) was under 4.30. The pIC50 (Homo sapiens, SK-BR-3, 72 h, SKBR3 cell line (breast)) was 5.46, the pIC50 (Homo sapiens, SK-HEP1, 72 h, SKHEP1 cell line (liver)) was 5.52 and the pIC50 (Homo sapiens, SK-LMS-1, 72 h, SKLMS1 cell line (uterus)) was under 4.30. For the same compound, the pIC50 (Homo sapiens, SK-MEL-5, 72 h, SKMEL5 cell line, skin) was under 4.30, the pIC50 (Homo sapiens, SK-MEL-28, 72 h, SKMEL28 cell line (skin)) was 5.38 and the pIC50 (Homo sapiens, SK-N-AS, SKNAS cell line (brain)) was 6.02. It also gave a pIC50 (Homo sapiens, SK-N-SH, SKNSH cell line (brain)) of 6.04, a pIC50 (Homo sapiens, SK-OV-3, 72 h, SKOV3 cell line (ovary)) of 5.61 and a pIC50 (Homo sapiens, SNB-75, 72 h, SNB75 cell line (brain)) of under 4.30. The pIC50 (Homo sapiens, SU-DHL10, 72 h, SU-DHL-10 cell line (hematological)) was 5.25, the pIC50 (Homo sapiens, SU-DHL-6, 72 h, SU-DHL-6 cell line (hematological)) was under 4.30 and the pIC50 (Homo sapiens, SW-620, 72 h, SW620 cell line (colon)) was under 4.30. For the same compound, the pIC50 (Homo sapiens, T-24, 72 h, T24 cell line (bladder)) was under 4.30, the pIC50 (Homo sapiens, TE-671, 72 h, TE671 cell line (muscle)) was 5.51 and the pIC50 (Homo sapiens, THP-1, 72 h, THP-1 cell line (hematological)) was 5.52. The pIC50 (Homo sapiens, U-87 MG, U87MG cell line (brain)) was under 4.30, the pIC50 (Homo sapiens, UMUC3, 72 h, UMUC3 cell line (bladder)) was under 4.30 and the pIC50 (Homo sapiens, UO-31, 72 h, UO31 cell line (kidney)) was under 4.30. It also gave a pIC50 (Homo sapiens, WSU-NHL, WSU-NHL cell line (hematological)) of 5.63, a pIC50 (MT-3, 72 h, MT3 cell line (breast)) of 5.43 and a pIC50 (NCI-H358M, NCIH358M cell line (lung)) of 5.57. For the same compound, the pIC50 (PBMC, PBMC (hematological)) was under 4.30 and the pIC50 (RD-ES, RDES cell line (bone)) was under 4.30.
